ChEMBL document CHEMBL5360581, “Discovery of a novel dual functional phenylpyrazole-styryl hybrid that induces apoptotic and autophagic cell death in bladder cancer cells” (Eur J Med Chem, 2023)
Active and inactive are the calls of the source.

What was measured:
EJ-28 [1] = assay: Induction of ROS generation in human EJ-28 cells at 1.25 to 10 uM incubated for 48 hrs by DCFDA staining based flow cytometry analysis; type: functional, cell-based; conditions: dose 1.25-10 µM
SW-620 [2] = assay: Antiproliferative activity against human SW620 cells assessed as reduction in cell viability at 20 uM measured for 72 hrs by MTT assay; type: functional, cell-based
HT-1080 [3] = assay: Antiproliferative activity against human HT-1080 cells assessed as reduction in cell viability at 20 uM measured for 72 hrs by MTT assay; type: functional, cell-based
MCF7 = assay: Antiproliferative activity against human MCF7 cells assessed as reduction in cell viability at 20 uM measured for 72 hrs by MTT assay; type: functional, cell-based
SW-620 [4] = assay: Cytotoxicity against human SW620 cells assessed inhibition of cell growth incubated for 72 hrs by MTT assay; type: functional, cell-based; conditions: SW-620, 72 h
EJ-28 [5] = assay: Cytotoxicity against human EJ-28 cells assessed inhibition of cell growth incubated for 72 hrs by MTT assay; type: functional, cell-based; conditions: EJ-28, 72 h
HT-1080 [6] = assay: Cytotoxicity against human HT-1080 cells assessed inhibition of cell growth incubated for 72 hrs by MTT assay; type: functional, cell-based; conditions: HT-1080, 72 h
[7] = Selectivity index, ratio of IC50 for cytotoxicity against human NHDF cells to IC50 for cytotoxicity against human SW620 cells
[8] = Selectivity index, ratio of IC50 for cytotoxicity against human NHDF cells to IC50 for cytotoxicity against human A549 cells; type: toxicity, cell-based; conditions: NHDF cells and A549 cells, read-out: Ratio IC50
[9] = Selectivity index, ratio of IC50 for cytotoxicity against human NHDF cells to IC50 for cytotoxicity against human HT-1080 cells
[10] = Selectivity index, ratio of IC50 for cytotoxicity against human NHDF cells to IC50 for cytotoxicity against human MCF7 cells; type: toxicity, cell-based; conditions: NHDF cells and MCF7 cells, read-out: Ratio IC50
EJ-28 [11] = assay: Induction of morphological changes in human EJ-28 cells assessed as intracellular vacuolization at 7.5 uM incubated for 24 to 72 hrs by microscopic analysis; type: functional, cell-based; conditions: time 24-72 hrs
EJ-28 [12] = assay: Antimigratory activity in human EJ-28 cells at 1.25 to 10 uM measured for 24 hrs by imaging analysis; type: functional, cell-based; conditions: dose 1.25-10 µM
EJ-28 [13] = assay: Induction of cell cycle arrest in human EJ-28 cells assessed as accumulation of cells at sub-G0/G1 phase at 5 uM incubated for 48 hrs by propidium iodide staining based flow cytometry (reference value: 48%); type: functional
EJ-28 [14] = assay: Induction of cell cycle arrest in human EJ-28 cells assessed as accumulation of cells at G2/M phase at 5 uM incubated for 48 hrs by propidium iodide staining based flow cytometry (reference value: 20%); type: functional
EJ-28 [15] = assay: Induction of cell cycle arrest in human EJ-28 cells assessed as accumulation of cells at G2/M phase at 10 uM incubated for 48 hrs by propidium iodide staining based flow cytometry (reference value: 20%); type: functional
EJ-28 [16] = assay: Induction of apoptosis in human EJ-28 cells at 1.25 to 10 uM by AnnexinV-FITC/propidium iodide staining based flow cytometry analysis; type: functional, cell-based; conditions: dose 1.25-10 µM, time 24-72 hrs, TDE = time-dependent effect
EJ-28 [17] = assay: Induction of apoptosis in human EJ-28 cells assessed as downregulation of procaspase-3 expression incubated for 24 to 72 hrs by Western blotting analysis; type: functional, cell-based; conditions: time 24-72 hrs
EJ-28 [18] = assay: Induction of apoptosis in human EJ-28 cells assessed as upregulation of PARP expression incubated for 24 hrs by Western blotting analysis; type: functional, cell-based
EJ-28 [19] = assay: Induction of apoptosis in human EJ-28 cells assessed as upregulation of Mcl-1 expression incubated for 24 hrs by Western blotting analysis; type: functional, cell-based
EJ-28 [20] = assay: Induction of apoptosis in human EJ-28 cells assessed as upregulation of phosphorylated […] level incubated for 24 to 72 hrs by Western blotting analysis; type: functional, cell-based; conditions: time 24-72 hrs
EJ-28 [21] = assay: Induction of apoptosis in human EJ-28 cells assessed as upregulation of Bcl-xL expression incubated for 24 hrs by Western blotting analysis; type: functional, cell-based
EJ-28 [22] = assay: Induction of apoptosis in human EJ-28 cells assessed as upregulation of cleaved caspases-9 expression by Western blotting analysis; type: functional, cell-based; conditions: time 24-72 hrs
EJ-28 [23] = assay: Induction of apoptosis in human EJ-28 cells assessed as upregulation of NOXA expression incubated for 24 hrs by Western blotting analysis; type: functional, cell-based
EJ-28 [24] = assay: Induction of apoptosis in human EJ-28 cells assessed as upregulation of cleaved bid expression incubated for 24 hrs by Western blotting analysis; type: functional, cell-based
EJ-28 [25] = assay: Induction of apoptosis in human EJ-28 cells assessed as upregulation of Bax expression incubated for 24 hrs by Western blotting analysis; type: functional, cell-based
EJ-28 [26] = assay: Induction of apoptosis in human EJ-28 cells assessed as upregulation of Bax expression incubated for 48 to 72 hrs by Western blotting analysis; type: functional, cell-based; conditions: time 48-72 hrs
EJ-28 [27] = assay: Induction of autophagy in human EJ-28 cells assessed as autophagic flux at 5 to 12.5 uM incubated for 36 to 48 hrs by flow cytometry analysis; type: functional, cell-based; conditions: dose 5-12.5 µM, time 36-48 hrs
EJ-28 [28] = assay: Induction of autophagy in human EJ-28 cells assessed as upregulation of Atg12 expression at 5 to 12.5 uM incubated for 24 to 72 hrs by Western blot analysis; type: functional, cell-based; conditions: dose 5-12.5 µM, time 24-72 hrs
EJ-28 [29] = assay: Induction of autophagy in human EJ-28 cells assessed as upregulation of Atg5-Atg12 expression at 5 to 12.5 uM incubated for 24 to 72 hrs by Western blot analysis; type: functional, cell-based; conditions: dose 5-12.5 µM, time 24-72 hrs
EJ-28 [30] = assay: Induction of autophagy in human EJ-28 cells assessed as upregulation of Atg16L1 expression at 5 to 12.5 uM incubated for 24 to 72 hrs by Western blot analysis; type: functional, cell-based; conditions: dose 5-12.5 µM, time 24-72 hrs
EJ-28 [31] = assay: Induction of autophagy in human EJ-28 cells assessed as upregulation of Beclin-1 expression at 5 to 12.5 uM incubated for 24 to 72 hrs by Western blot analysis; type: functional, cell-based; conditions: dose 5-12.5 µM, time 24-72 hrs
EJ-28 [32] = assay: Induction of autophagy in human EJ-28 cells assessed as upregulation of Atg3 expression at 5 to 12.5 uM incubated for 24 to 72 hrs by Western blot analysis; type: functional, cell-based; conditions: dose 5-12.5 µM, time 24-72 hrs
HEK293 = assay: Cytotoxicity against HEK293 cells expressing EGFR assessed as inhibition of cell growth incubated for 24 to 72 hrs; type: toxicity, cell-based; conditions: human, time 24-72 hrs
EJ-28 [33] = assay: Anticancer activity against human EJ-28 cells cultured as 3D spheroids assessed as decrease in spheroid size at 5 to 20 uM measured upto 5 days by fluorescence microscopic analysis; type: functional, cell-based; conditions: dose 5-20 µM, time <= 5.0 day
EJ-28 [34] = assay: Anticancer activity against human EJ-28 cells cultured as 3D spheroids at 2.5 to 20 uM measured upto 5 days by PI/Hoechst 33342 staining based fluorescence microscopic analysis; type: functional, cell-based; conditions: dose 2.5-20 µM, time <= 5.0 day
[35] = Toxicity in Zebrafish embryo assessed as body curvature at 12.5 uM administered for 4 hrs post fertilization and measured after 3 days post fertilization; parameters: species or system Danio rerio; conditions: in vivo, 72 h, time 3 day
[36] = Toxicity in Zebrafish embryo assessed as mild bradycardia at 12.5 to 25 uM administered for 4 hrs post fertilization and measured after 3 days post fertilization; parameters: species or system Danio rerio; conditions: in vivo, 72 h, dose 12.5-25 µM, time 3 day

O=[N+]([O-])c1cccc(/C=C/c2cc(-c3cc(Cl)ccc3O)n(-c3ccccc3)n2)c1
13 µM: IC50 (HT-1080 [6])
2.8 µM: IC50 (EJ-28 [5])
58%: Activity (EJ-28 [13])
Non-Toxic: Activity (HEK293) | Activity [35] | Activity [36]
inactive: Activity (EJ-28 [1]) | Activity (EJ-28 [21]) | Activity (EJ-28 [25]) | Activity (EJ-28 [30]) | Activity (EJ-28 [31]) | Activity (EJ-28 [32])
active: Activity (SW-620 [2]) | Activity (HT-1080 [3]) | Activity (MCF7) | Activity (EJ-28 [11]) | inhibition (EJ-28 [12]) | Activity (EJ-28 [16]) Tde | Activity (EJ-28 [17]) | Activity (EJ-28 [18]) | Activity (EJ-28 [19]) | Activity (EJ-28 [20]) | Activity (EJ-28 [22]) Dose-Dependent Effect | Activity (EJ-28 [23]) | Activity (EJ-28 [24]) | Activity (EJ-28 [26]) | Activity (EJ-28 [27]) | Activity (EJ-28 [28]) | Activity (EJ-28 [29]) | Activity (EJ-28 [33]) | Activity (EJ-28 [34])
2.6: Ratio IC50 [7] | selectivity ratio [8] | Ratio IC50 [9] | selectivity ratio [10]
10 µM: IC50 (SW-620 [4])
19%: Activity (EJ-28 [14])
17%: Activity (EJ-28 [15])
